The subject of the test is Trichophyton mentagrophytes. The experiment in a line: Inhibitory test, filter paper disc on newly inoculated plate. It is filed as cell-based. To be noted: FIG. 20. As to the method: Sabouraud's liquid medium was inoculated with the chosen pathogen. The broths were then incubated for one week at 28° C. […] Monographed actives not already in a cream base were mixed with a respective cream base. […] Up to four different discs were placed on a plate. The plate was then incubated for 24-48 hours at the appropriate temperature depending on the pathogen. Photos were then taken at the completion of the 24-48 hours.

In the case of `Clc1ccc(COC(Cn2ccnc2)c2ccc(Cl)cc2Cl)c(Cl)c1` (stereo not shown) [miconazole], the regrowth into clearance result was “became encroached by regrowth”.

The values are drawn from US8808706B2, “Arthrospira-based compositions and uses thereof” (Biovite Australia Pty. Ltd., priority 2004, dated 2014).
